Measurements: patent US20170101521A1, “THERMAL BASE GENERATOR, THERMOSETTING RESIN COMPOSITION, CURED FILM, CURED FILM MANUFACTURING METHOD, AND SEMICONDUCTOR DEVICE” (FUJIFILM Corporation, priority 2014, published 2017)

Experiments:
[1] = Base generation temperature by differential scanning calorimetry; type: physicochemical; details: DSC, heated to 250° C. at 5° C./min in pressure-resistant capsule; peak temperature of lowest exothermic peak
Procedure: The base generation temperature may be measured, for example, by heating a compound to 250° C. at a rate of 5° C./minute in a pressure-resistant capsule, reading a peak temperature of an exothermic peak having the lowest temperature, and taking the peak temperature as a base generation temperature, using differential scanning calorimetry.
Using differential scanning calorimetry (Q2000, manufactured by TA), (A) a thermal base generator was heated to 250° C. at 5° C./min in a pressure-resistant capsule. The peak temperature of an exothermic peak having the lowest temperature was read to measure such a peak temperature as a base generation temperature.

[2] = literature value, or calculated with ACD/pKa for compounds not listed; cited from earlier work

Structure (SMILES) | Base generation temperature [1] | pKa1 of anion [2]
O=C(O)CN(CC(=O)O)c1ccccc1 [A-1] | 145 °C | 
Cc1ccc(N(CC(=O)O)CC(=O)O)cc1 [A-2] | 140 °C | 
COc1ccc(N(CC(=O)O)CC(=O)O)cc1 [A-3] | 140 °C | 
O=C(O)CN(CC(=O)O)c1ccc(-c2ccccc2)cc1 [A-4] | 150 °C | 
C1CCC2=[N+](CC1)CCCN2.O=C([O-])CCC(=O)O [A-12] | 150 °C | 
CCN(CC)CC.O=C(O)CCC(=O)O [A-13] | 170 °C | 
CCCCCCCCCCCC[N+](C)(C)CC(=O)c1ccccc1.O=C([O-])C(=O)O [A-21] | 150 °C | 1.2
CCCCCCCCCCCC[N+](C)(C)CC(=O)c1ccccc1.O=C([O-])CCC(=O)O [A-22] | 130 °C | 4.2
O=C(C[n+]1ccccc1)c1ccccc1.O=C([O-])C(=O)O [A-27] | 140 °C | 1.2
O=C(C[N+]1=C2CCCCCN2CCC1)c1ccccc1.O=C([O-])C(=O)O [A-28] | 140 °C | 1.2
O=C(C[N+]1=C2CCCN2CCC1)c1ccccc1.O=C([O-])C(=O)O [A-29] | 140 °C | 1.2
C[N+]1(CC(=O)c2ccccc2)CCCCC1.O=C([O-])C(=O)O [A-30] | 140 °C | 1.2
O=C(C[N+]12CCN(CC1)CC2)c1ccccc1.O=C([O-])C(=O)O [A-31] | 140 °C | 1.2
C[N+]1(C)CCCCC1.O=C([O-])C(=O)O [A-32] | 190 °C | 1.2
C1CN2CCN1CC2.O=C(O)C(=O)O [A-33] | 70 °C | 1.2
C1CCC2=[N+](CC1)CCCN2.O=C([O-])C(=O)O [A-34] | 80 °C | 1.2
CC[N+](CC)(CC)C(c1ccccc1)c1ccccc1.O=C([O-])C(=O)O [A-36] | 170 °C | 1.2
C[n+]1ccccc1.O=C([O-])C(=O)O [A-37] | 180 °C | 1.2

The next lines start with results.

Base generation temperature [1] | Structure (SMILES) | pKa1 of anion [2]
155 °C | O=C(O)CN(CC(=O)O)c1cc(C(F)(F)F)cc(C(F)(F)F)c1 [A-5] | 
155 °C | O=C(O)CN(CC(=O)O)c1ccc(C(F)(F)F)cc1 [A-6] | 
155 °C | CC(=O)c1ccc(N(CC(=O)O)CC(=O)O)cc1 [A-7] | 
145 °C | O=C(O)CN(CC(=O)O)c1ccc(Cc2ccc(N(CC(=O)O)CC(=O)O)cc2)cc1 [A-8] | 
140 °C | CC(C)(c1ccc(N(CC(=O)O)CC(=O)O)cc1)c1ccc(N(CC(=O)O)CC(=O)O)cc1 [A-9] | 
200 °C | Cc1ccc(NC(CC(=O)O)C(=O)O)cc1 (stereo not drawn) [A-10] | 
200 °C | O=C(O)CC(Nc1ccccc1)C(=O)O (stereo not drawn) [A-11] | 
130 °C | O=C(O)CN(CC(=O)Nc1ccccc1)c1ccccc1 [A-16] | 
190 °C | C=CCN(CC(=O)O)CC(=O)O [A-17] | 
150 °C | CCCCCCCCCCCC[N+](C)(C)CC(=O)c1ccccc1.O=C([O-])/C=C\C(=O)O [A-18] | 1.9
140 °C | CCCCCCCCCCCC[N+](C)(C)CC(=O)c1ccc2ccccc2c1.O=C([O-])/C=C\C(=O)O [A-23] | 1.9
150 °C | CCCCCC[N+](C)(C)CC(=O)c1ccccc1.O=C([O-])/C=C\C(=O)O [A-38] | 1.9
150 °C | CCCCCCCC[N+](C)(C)CC(=O)c1ccccc1.O=C([O-])/C=C\C(=O)O [A-39] | 1.9
150 °C | C[N+](C)(CC(=O)c1ccccc1)C1CCCCC1.O=C([O-])/C=C\C(=O)O [A-40] | 1.9
150 °C | C[N+](C)(CC(=O)c1ccccc1)Cc1ccccc1.O=C([O-])/C=C\C(=O)O [A-41] | 1.9
150 °C | CCCCC(CC)C[N+](C)(C)CC(=O)c1ccccc1.O=C([O-])/C=C\C(=O)O (stereo not drawn) [A-42] | 1.9
80 °C | CCC(O)C[N+](C)(C)[N-]C(=O)c1ccccc1OC (stereo not drawn) [X-1, reference compound] | 
Higher than 200 °C | C=C(C)C(=O)OC(CO)N(CC(=O)O)c1ccccc1 (stereo not drawn) [X-4, reference compound] | 
Higher than 200 °C | C=Cc1ccc(NCC(=O)O)cc1 [X-5, reference compound] | 
Higher than 200 °C | O=C(O)CNc1ccccc1 [X-6, reference compound] | 
Higher than 200 °C | CN(CC(=O)O)CC(=O)O [X-7, reference compound] | 
Higher than 200 °C | O=C(O)CN(CCN(CC(=O)O)CC(=O)O)CC(=O)O [X-8, reference compound] | 
Lower than 40 °C | C1CNC2=[N+](C1)CCCN2.O=C([O-])/C=C\C(=O)O [X-9, reference compound] | 
